In US10202391B2, “Chemical compounds” (AstraZeneca AB, priority 2015, dated 2019):

Legend:
Type in all cases: cell-based, human
Conditions in all cases: Example 18 with selumetinib, 6x6 dosing matrix 0-10 μmol/L, 3 days, Loewe model, average of three or more experiments
[1] = tested on: H2009 cell line; assay: Combination cell growth inhibition (Sytox Green, Loewe synergy), H2009
Text: (§1) A549 is a human non small cell lung cancer line carrying an oncogenic mutation in the KRAS gene (G12S). H2122 is a human non small cell lung cancer line carrying an oncogenic mutation in the KRAS gene (G12C). H2009 is a human non small cell lung cancer line carrying an oncogenic mutation in the KRAS gene (G12A). Calu6 is a human non small cell lung cancer line carrying mutation in the KRAS ([…]) gene. All cell lines were obtained from the American Type Culture Collection.
(§2) All cell line were maintained at 37° C. and 5% CO2 in a humidified atmosphere and grown in RPMI-1640 growth media supplemented with 10% FBS and 2 mmol/L glutamine. […]
(§3) Cells were seeded in 384-well black, clear bottomed plates (Greiner Bio-One, Stonehouse, UK), cultured for 18-24 hours and treated with increasing concentrations of Example 18 and selumetinib (0-10 μmol/L) in a 6×6 dosing matrix. […] After 3 days of treatment, live cell number was determined using a Sytox Green endpoint as described previously (“Davies B R, Greenwood H, Dudley P, et al: Preclinical pharmacology of AZD5363, an inhibitor of AKT: Pharmacodynamics, antitumor activity, and correlation of monotherapy activity with genetic background. Mol Cancer Ther 11(4):873-87, 2012”). […] Cells were then permeabilised by the overnight addition of saponin (0.03% final concentration, diluted in TBS-EDTA buffer) and a total cell count measured. […]

[2] = tested on: A549 cell line; assay: Combination cell growth inhibition (Sytox Green, Loewe synergy), A549
Text: as §1, §2, §3

[3] = tested on: Calu6 cell line; assay: Combination cell growth inhibition (Sytox Green, Loewe synergy), Calu6
Text: as §1, §2, §3

`COC[C@H]1Cn2cc(-c3nc(Nc4ccnn4C)ncc3C)nc2C(=O)N1Cc1ccc(F)c(F)c1` [Example 18, (R)-7-(3,4-Difluorobenzyl)-6-(methoxymethyl)-2-(5-methyl-2-((1-methyl-1H-pyrazol-5-yl)amino)pyrimidin-4-yl)-6,7-dihydroimidazo[1,2-a]pyrazin-8(5H)-one] was tested, and the Synergy score [1] was 67.5, the Synergy score [2] was 25 and the Synergy score [3] was 3.
